Measured values as given in PMC11434613, “The Remarkable and Selective In Vitro Cytotoxicity of Synthesized Bola-Amphiphilic Nanovesicles on Etoposide-Sensitive and -Resistant Neuroblastoma Cells” (Nanomaterials, 2024).
Where “and” joins values, the source holds several entries; their conditions need not be identical. Equal entries are not always repeated. Where two headings read alike, the source gives them in different places.

Columns and labels:
red blood cells (RBCs) = test: In vitro hemolytic toxicity on red blood cells; type: cell-based, human; settings: for Hemolysis (hemolytic ratio): 60 min; for IC50: 60 min at 37 °C, 0.1–50 µM, blood of four healthy donors, read-out: IC50 RBCs (concentration needed to cause 50% hemolysis)
Protocol: (§1) The hemolytic ratio was evaluated, as recently reported with slight changes, in EDTA-blood samples from four healthy donors from the San Martino Hospital Transfusion Centre. Specifically, red blood cells (RBCs) were isolated by diluting 0.2 mL of blood with 0.4 mL of phosphate-buffered saline (PBS) and centrifuging it for 5 min at 10,000× g. The pellet, consisting of RBCs, was washed 5 times with 1.0 mL PBS and finally resuspended with 2.0 mL PBS. The assay was carried out on 0.1 mL of resuspended RBCs added to 0.1 mL of H2O (positive control), 0.1 mL of PBS (negative control), or 0.1 mL of the different concentrations (0.1–50 µM) of the compound to be tested (BPPB). The samples were incubated for 60 min at 37 °C, and at the end, they were centrifuged for 5 min at 10,000× g. Finally, 0.1 mL of supernatant was transferred to a transparent 96-well plate and measured by a spectrophotometer (Dynex Technologies; Chantilly, VA, U.S.A.) at 595 nm. The hemolytic ratio was calculated using the following formula:Hemolytic ratio (%) = (OD TEST − OD NEGATIVE CONTROL)/(OD POSITIVE CONTROL − OD NEGATIVE CONTROL) × 100
(§2) The hemolytic ratio percentage (%) caused by BPPB was assessed as recently reported with slight changes. In particular, EDTA-blood samples from four healthy donors were exposed to increasing concentrations of BPPB (0.1–50 µM).

[1] = In vitro hemolytic toxicity on red blood cells; type: cell-based, human; settings: human
Protocol: as §1, §2

Cos-7 cells = test system: Cos-7 cells; set-up: method as in earlier work; settings: MTT test; Table S1, previously assessed characteristics; cited from earlier work
[2] = test system: Human MRC-5 lung fibroblast cells; test: Presto Blue viability test on MRC-5 lung fibroblasts; type: cell-based; settings: for IC50: concentration range 0.5–5 µM
Protocol: (§3) Human MRC-5 lung fibroblast cells were used (ICLC-IRCCS San Martino, Genoa, Italy); cells were expanded in DMEM/F12 50%/50% (Dulbecco’s Modified Eagle Medium/Ham’s F12 50/50 Mix; Corning, Pisa, Italy; cat. n. 10-090-CV; ThermoFisher Scientific, Segrate (MI), Italy, supplemented with 10% fetal bovine serum (GIBCO-Invitrogen, GIBCO-ThermoFisher Life Science, Segrate, Italy, catalog number (cat. n.) 10270-098) and 2 mM glutamine (Euro-Clone; Pero, MI, Italy; cat. n. EC B3000D) at 37 °C under 5% CO2 aeration. After expansion, cells were washed three times with sterile phosphate buffered solution (PBS; VWR, Milano, Italy, cat. n. 392-0442), detached with 0.25% Trypsin solution (Corning; cat-25-050-CI), collected in complete medium, and centrifuged at 400× g for 12 min. The supernatant was discarded, and cells were suspended in PBS, counted, and centrifuged again as mentioned above. Cells were then resuspended in complete medium, seeded into 24-well plates (20,000 cells/well) and allowed to adhere to the plate for the next 24 h. Subsequently, non-adherent cells and the plating medium were discarded, and fresh standard medium or treatment medium were added. Treatment media contained BPPB at different concentrations (0.5, 1.0, 5.0, 25.0, 50.0, 75.0 and 100.0 μM); triplicate wells for each concentration were tested simultaneously, as well as controls. The medium was changed every day. Cells were photographed and assayed for viability prior to treatment (time 0; T0) and after 24, 48, and 72 h subsequently (T24, T48 and T72). Bright field images of each well/treatment were acquired using a Nikon Digital Sigh DS-5Mc camera (Nikon Europe B.V., Amstelveen, The Netherlands) mounted on an inverted Olympus CKX-41 microscope (Evident Europe GmbH, Segrate (Milan), Italy) (4×, 10× and 20× enlargements).
(§4) Briefly, at the indicated time points, cells were washed twice with PBS and incubated in the dark a 37 °C for 4 h with fresh complete medium supplemented with 10% Presto Blue ^TM. Aliquots of the Presto Blue ^TM-containing medium were incubated in the same conditions, to be used as reaction blanks. Supernatants and blanks were then collected and analyzed using a Spectra MR multi-plate reader spectrophotometer (Dynex Technologies; Chantilly, VA, USA) at 570 and 600 nm. The results were calculated as the average of treatment replicas (triplicates) ± S.D., normalizing each 570 nm reading to its corresponding value at 600 nm, subtracting the average blank value, and normalizing the results at each time point to the initial reading at T0.

[3] = as above; type: cell-based, human; settings: human
Protocol: as §3, §4

**Q.** What does the source list for `c1ccc([P+](CCCCCCCCCCCC[P+](c2ccccc2)(c2ccccc2)c2ccccc2)(c2ccccc2)c2ccccc2)cc1` [BPPB, 1,1-(1,12-dodecanediyl)bis [1,1, 1]-triphenylphosphonium di-bromide]?
**A.** Hemolysis (hemolytic ratio) (red blood cells (RBCs); 10 µM): 25.1%; Hemolysis (hemolytic ratio) (red blood cells (RBCs); 20 µM): 50.8%; IC50 (red blood cells (RBCs)): 14.9 µM; IC50 (red blood cells (RBCs); Homo sapiens, Erythrocyte, 1 h): 14.9 µM; Selectivity index (SI) = IC50 RBCs / IC50 HTLA-230 (red blood cells (RBCs); NB cells 24 h exposure): > 74; Selectivity index (SI) = IC50 RBCs / IC50 HTLA-ER (red blood cells (RBCs); NB cells 24 h exposure): 13.56; selectivity ratio at 60 min ([1]; NB cells 24 h exposure, read-out: Selectivity index (SI) = IC50 RBCs / IC50 HTLA-ER): > 10; viability at 60 min ([1]; isolated red blood cells, concentration at which both NB cell populations were fully exterminated, read-out: RBC viability): 98.4%; IC50 COS-7 cell (Cos-7 cells): 5.76 ± 0.95 µg/mL; Selectivity index (SI) = IC50 MRC-5 / IC50 HTLA-230 ([2]; 24 h): 11.68; Selectivity index (SI) = IC50 MRC-5 / IC50 HTLA-ER ([2]; 24 h): 2.49; IC50 ([2]; 24 h exposure): 2.77 µM; Selectivity index (SI) = IC50 MRC-5 / IC50 HTLA-230 ([2]; 48 h): 3.77; Selectivity index (SI) = IC50 MRC-5 / IC50 HTLA-ER ([2]; 48 h): 0.80; Selectivity index (SI) = IC50 MRC-5 / IC50 HTLA-230 ([2]; 72 h): 4.01 and 4.07; Selectivity index (SI) = IC50 MRC-5 / IC50 HTLA-ER ([2]; 72 h): 1.11; Fold higher SI for HTLA-ER than that of ETO ([2]; BPPB SI vs MRC-5, 24 h (2.49) against ETO SI (0.32)): 7.8 fold; IC50 ([2]; Homo sapiens, MRC5, 24 h, 24 h exposure): 2.8 µM; IC50 ([2]; Homo sapiens, MRC5, 48 h, 48 h exposure): 0.74 ± 0.572 µM; IC50 ([2]; Homo sapiens, MRC5, 72 h, 72 h exposure): 0.928 ± 0.896 µM; Effect on plated MRC-5 cells ([2]; any concentration equal to or higher than 25 µM, within 24 h): detachment and death of all plated cells; selectivity ratio at 24 h ([3]; 24 h, read-out: Selectivity index (SI) = IC50 MRC-5 / IC50 HTLA-ER): 2.5; selectivity ratio at 48 h ([3]; 48 h, read-out: Selectivity index (SI) = IC50 MRC-5 / IC50 HTLA-ER): ~1; selectivity ratio at 72 h ([3]; 72 h, read-out: Selectivity index (SI) = IC50 MRC-5 / IC50 HTLA-ER): ~1; viability at 48 h, 1 µM ([3]; MRC-5 lung fibroblast cells, 1.0 µM, 48 h, read-out: Percentage of viable MRC-5 cells with respect to seeded cells at T0): 26.8%; viability at 72 h, 1 µM ([3]; MRC-5 lung fibroblast cells, 1.0 µM, 72 h, read-out: Percentage of viable MRC-5 cells with respect to seeded cells at T0): 30.6%; viability at 5 µM ([3]; MRC-5 lung fibroblast cells, 5 µM, 48–72 h, read-out: Cell viability MRC-5): 3%; viability at 24 h, 5 µM ([3]; MRC-5 lung fibroblast cells, 5 µM, 24 h, read-out: Cell viability MRC-5): 38%; viability at 48 h, 5 µM ([3]; MRC-5 lung fibroblast cells, 5.0 µM, 48 h, read-out: Percentage of viable MRC-5 cells with respect to seeded cells at T0): 2.78%; viability at 72 h, 5 µM ([3]; MRC-5 lung fibroblast cells, 5.0 µM, 72 h, read-out: Percentage of viable MRC-5 cells with respect to seeded cells at T0): 3.04%
